From patent US6596753B2, “Compounds of the indolecarboxylic family and use thereof” (Societe L'Oreal S.A., priority 1997, dated 2003)
pIC50: −log10 of the molar value.

Each compound was assayed against T1, 5α-reductase 2 (Homo sapiens, UniProt P31213) (assay: Inhibition of type 2 5α-reductase (14C-testosterone to DHT conversion, lysate of transfected COS7 cells)). Conditions: pH 5.5 citrate buffer, 1 nM 14C-testosterone, 5 mM NADPH, 50 minutes at 37° C.; read-out: 5α-reductases: IC50 Type II.
T1 construct: made in house; host or cells: COS7 cells (ATCC, CRL 1651), transient transfection with pSG5; 100,000 x g pellet of the lysate
T1 sequence (P31213 1-254): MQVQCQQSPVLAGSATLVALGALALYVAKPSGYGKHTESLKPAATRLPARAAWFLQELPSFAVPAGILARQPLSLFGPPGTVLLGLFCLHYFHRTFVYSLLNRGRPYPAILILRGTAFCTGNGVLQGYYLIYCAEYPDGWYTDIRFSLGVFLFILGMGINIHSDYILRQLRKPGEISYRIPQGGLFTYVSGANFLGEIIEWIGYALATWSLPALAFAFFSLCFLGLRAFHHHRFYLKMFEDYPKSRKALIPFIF
Type: biochemical
Source text: (§1) The coding sequences (complementary deoxyribonucleic acids: cDNA) of 5α-reductase 1 and of 5α-reductase 2 were cloned in the eukaryotic expression vector pSG5 (Stratagene). The enzymes were over-expressed after transient transfection of COS7 cells (ATCC, CRL 1651). The cDNAs of 5α-reductase 1 and of 5α-reductase 2 were obtained by reverse transcription and polymerase chain reaction (PCR) using specific primers, starting with total RNA from human testicles (sold by the company Clontech).
The primers used to obtain the 5α-reductase 2 cDNA are:
+ strand: 5′ GCGATGCAGGTTCAGTG 3′
− strand: 5′ ATTGTGGGAGCTCTGCT 3′.
(§2) By standard genetic engineering techniques, the 5α-reductase 1 cDNA obtained was inserted into the BamHI site of pSG5 and that of 5α-reductase 2 was inserted into the EcoRI site (see Maniatis et al., Molecular Cloning, Cold Spring Harbor, 1989).
(§3) The positive clones (recombinants) were identified by the hybridization technique with a cold probe (Plex luminescent kits, Millipore) and mapped by enzymatic digestions and partial sequencing.
(§4) After transient transfection, the COS7 cells are lysed in a 10 mM Tris-HCl, pH=7/150 mM KCl/1 mM EDTA buffer by 3 cycles of freezing/thawing. The homogenate is centrifuged at 100,000× g for 1 hour. The pellets containing the 5α-reductase 1 or the 5α-reductase 2 are taken up in a 40 mM, pH 6.5 phosphate buffer or a 40 mM, pH 5.5 citrate buffer for the 5α-reductase 1 or 5α-reductase 2, respectively.
(§5) 5 μg of proteins thus obtained are incubated in a well of a 96-well plate (NUNC) in the presence of 1 nM ^14C-testosterone (Amersham) and 5 mM nicotinamide […] dinucleotide phosphate, reduced form (NADPH) (Sigma) in the corresponding buffer (40 mM, pH 6.5 phosphate buffer or 40 mM, pH 5.5 citrate buffer for the 5α-reductase 1 or 5α-reductase 2, respectively) for 50 minutes at 37° C. after addition of the test products. The test products are added at concentrations of 10^−4 M to 10^−10 M, diluted in 40 mM, pH 6.5 phosphate buffer or 40 mM, pH 5.5 citrate buffer for the 5α-reductase 1 or 5α-reductase 2, respectively.
(§6) The reaction mixtures are then placed directly on a silica plate (HPTLC, 60F 254, Merck) and subjected to chromatography (solvent=10% diethyl ether, 90% dichloromethane). They are then analysed by digital autoradiography (Berthold).
(§7) The inhibition of the activity of the isoenzymes is measured by calculating the percentage of dihydrotestosterone formed from ^14C-testosterone relative to an untreated control.

pIC50	Compound
6.00	Cc1c(C(=O)O)[nH]c2cc(OCc3ccccc3)c(OCc3ccccc3)cc12 [Compound b, 5,6-bis(benzyloxy)-3-methyl-1H-indole-2-carboxylic acid]
< 4.00	COc1cc(OCc2ccccc2)c2cc(C(=O)O)[nH]c2c1 [Example 1, 4-benzyloxy-6-methoxy-1H-indole-2-carboxylic acid]
< 4.00	COc1cc(OCc2cc(C(F)(F)F)cc(C(F)(F)F)c2)c2cc(C(=O)O)[nH]c2c1 [Example 2, 4-[3,5-bis(trifluoromethyl)benzyloxy]-6-methoxy-1H-indole-2-carboxylic acid]
8.00	COc1cc2[nH]c(C(=O)O)cc2cc1OCc1cc(OC)c(OC)c(OC)c1 [Example 4, 5-(3,4,5-trimethoxybenzyloxy)-6-methoxy-1H-indole-2-carboxylic acid]
8.00	COc1ccc(COc2cc3cc(C(=O)O)[nH]c3cc2OC)cc1 [Example 5, 5-(4-methoxybenzyloxy)-6-methoxy-1H-indole-2-carboxylic acid]
7.40	COc1cc2[nH]c(C(=O)O)cc2cc1OCc1ccc(C#N)cc1 [Example 6, 5-(4-cyanobenzyloxy)-6-methoxy-1H-indole-2-carboxylic acid]

The next lines start with the compound.

Compound	pIC50
COc1cc2[nH]c(C(=O)O)cc2cc1OCc1cc(C(F)(F)F)cc(C(F)(F)F)c1 [Example 3, 5-[3,5-bis(trifluoromethyl)benzyloxy]-6-methoxy-1H-indole-2-carboxylic Acid]	8.30 to 9.00
O=C(O)c1cc2c(ccc3ccccc32)[nH]1 [Example 7, 3H-benz[e]indole-2-carboxylic acid]	5.22
Cn1c(C(=O)O)cc2c3ccccc3ccc21 [Example 8, 3-methyl-3H-benz[e]indole-2-carboxylic Acid]	5.00
COc1cc2[nH]c(C(=O)O)cc2cc1OCc1ccccc1 [a, 5-benzyloxy-6-methoxy-1H-indole-2-carboxylic acid]	9.00
O=C(O)c1cc2cc(OCc3ccccc3)c(OCc3ccccc3)cc2[nH]1 [c, 5,6-bis(benzyloxy)-1H-indole-2-carboxylic acid]	8.30

Same assay, conditions: type 2 versus type 1

Compound	specificity for the type 2 5α-reductase (in words)
COc1cc2[nH]c(C(=O)O)cc2cc1OCc1cc(OC)c(OC)c(OC)c1 [Example 4, 5-(3,4,5-trimethoxybenzyloxy)-6-methoxy-1H-indole-2-carboxylic acid]	more pronounced specificity for the type 2 5α-reductase
O=C(O)c1cc2cc(OCc3ccccc3)c(OCc3ccccc3)cc2[nH]1 [c, 5,6-bis(benzyloxy)-1H-indole-2-carboxylic acid]	more pronounced specificity for the type 2 5α-reductase

The compounds below were run against T2, 5α-reductase 1 (Homo sapiens, UniProt P18405) (assay: Inhibition of type 1 5α-reductase (14C-testosterone to DHT conversion, lysate of transfected COS7 cells)). Conditions: pH 6.5 phosphate buffer, 1 nM 14C-testosterone, 5 mM NADPH, 50 minutes at 37° C.; read-out: 5α-reductases: IC50 Type I.
T2 construct: made in house; host or cells: COS7 cells (ATCC, CRL 1651), transient transfection with pSG5; 100,000 x g pellet of the lysate
T2 sequence (P18405 1-259): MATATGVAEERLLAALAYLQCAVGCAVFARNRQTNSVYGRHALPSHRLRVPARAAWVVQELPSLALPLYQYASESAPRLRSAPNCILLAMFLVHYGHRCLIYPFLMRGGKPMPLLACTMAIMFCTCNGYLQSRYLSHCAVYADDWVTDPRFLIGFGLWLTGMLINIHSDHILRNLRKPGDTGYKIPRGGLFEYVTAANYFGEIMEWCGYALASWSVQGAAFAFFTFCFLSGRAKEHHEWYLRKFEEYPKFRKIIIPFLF
Type: biochemical
Source text: as §1
The primers used to obtain the 5α-reductase 1 cDNA are:
+ strand: 5′ […] 3′,
− strand: 5′ […] 3′.
as §2, §3, §4, §5, §6, §7

pIC50	Compound
< 4.00	Cc1c(C(=O)O)[nH]c2cc(OCc3ccccc3)c(OCc3ccccc3)cc12 [Compound b, 5,6-bis(benzyloxy)-3-methyl-1H-indole-2-carboxylic acid]
5.40 to 6.00	COc1cc(OCc2ccccc2)c2cc(C(=O)O)[nH]c2c1 [Example 1, 4-benzyloxy-6-methoxy-1H-indole-2-carboxylic acid]
5.00	COc1cc(OCc2cc(C(F)(F)F)cc(C(F)(F)F)c2)c2cc(C(=O)O)[nH]c2c1 [Example 2, 4-[3,5-bis(trifluoromethyl)benzyloxy]-6-methoxy-1H-indole-2-carboxylic acid]
< 4.00	COc1cc2[nH]c(C(=O)O)cc2cc1OCc1cc(OC)c(OC)c(OC)c1 [Example 4, 5-(3,4,5-trimethoxybenzyloxy)-6-methoxy-1H-indole-2-carboxylic acid]
5.30 to 6.00	COc1ccc(COc2cc3cc(C(=O)O)[nH]c3cc2OC)cc1 [Example 5, 5-(4-methoxybenzyloxy)-6-methoxy-1H-indole-2-carboxylic acid]
5.30	COc1cc2[nH]c(C(=O)O)cc2cc1OCc1ccc(C#N)cc1 [Example 6, 5-(4-cyanobenzyloxy)-6-methoxy-1H-indole-2-carboxylic acid]

More lines, now with the values behind:

Compound	pIC50
COc1cc2[nH]c(C(=O)O)cc2cc1OCc1cc(C(F)(F)F)cc(C(F)(F)F)c1 [Example 3, 5-[3,5-bis(trifluoromethyl)benzyloxy]-6-methoxy-1H-indole-2-carboxylic Acid]	6.30
O=C(O)c1cc2c(ccc3ccccc32)[nH]1 [Example 7, 3H-benz[e]indole-2-carboxylic acid]	5.52
Cn1c(C(=O)O)cc2c3ccccc3ccc21 [Example 8, 3-methyl-3H-benz[e]indole-2-carboxylic Acid]	6.30
COc1cc2[nH]c(C(=O)O)cc2cc1OCc1ccccc1 [a, 5-benzyloxy-6-methoxy-1H-indole-2-carboxylic acid]	6.00
O=C(O)c1cc2cc(OCc3ccccc3)c(OCc3ccccc3)cc2[nH]1 [c, 5,6-bis(benzyloxy)-1H-indole-2-carboxylic acid]	< 4.00

Same assay, conditions: statement covers both types of 5α-reductase

Compound	quality as inhibitor of 5α-reductase (in words)
Cc1c(C(=O)O)[nH]c2cc(OCc3ccccc3)c(OCc3ccccc3)cc12 [Compound b, 5,6-bis(benzyloxy)-3-methyl-1H-indole-2-carboxylic acid]	moderate inhibitor
COc1cc2[nH]c(C(=O)O)cc2cc1OCc1cc(C(F)(F)F)cc(C(F)(F)F)c1 [Example 3, 5-[3,5-bis(trifluoromethyl)benzyloxy]-6-methoxy-1H-indole-2-carboxylic Acid]	very good inhibitors of the two types of 5α-reductase
COc1ccc(COc2cc3cc(C(=O)O)[nH]c3cc2OC)cc1 [Example 5, 5-(4-methoxybenzyloxy)-6-methoxy-1H-indole-2-carboxylic acid]	very good inhibitors of the two types of 5α-reductase
COc1cc2[nH]c(C(=O)O)cc2cc1OCc1ccc(C#N)cc1 [Example 6, 5-(4-cyanobenzyloxy)-6-methoxy-1H-indole-2-carboxylic acid]	very good inhibitors of the two types of 5α-reductase
COc1cc2[nH]c(C(=O)O)cc2cc1OCc1ccccc1 [a, 5-benzyloxy-6-methoxy-1H-indole-2-carboxylic acid]	very good inhibitors of the two types of 5α-reductase

Same assay, conditions: type 1 versus type 2

Compound	specificity with respect to type 1 5α-reductase (in words)
Cc1c(C(=O)O)[nH]c2cc(OCc3ccccc3)c(OCc3ccccc3)cc12 [Compound b, 5,6-bis(benzyloxy)-3-methyl-1H-indole-2-carboxylic acid]	more pronounced specificity for the type 1 5α-reductase
COc1cc(OCc2ccccc2)c2cc(C(=O)O)[nH]c2c1 [Example 1, 4-benzyloxy-6-methoxy-1H-indole-2-carboxylic acid]	very pronounced specificity with respect to type 1 5α-reductase
COc1cc(OCc2cc(C(F)(F)F)cc(C(F)(F)F)c2)c2cc(C(=O)O)[nH]c2c1 [Example 2, 4-[3,5-bis(trifluoromethyl)benzyloxy]-6-methoxy-1H-indole-2-carboxylic acid]	very pronounced specificity with respect to type 1 5α-reductase
O=C(O)c1cc2c(ccc3ccccc32)[nH]1 [Example 7, 3H-benz[e]indole-2-carboxylic acid]	pronounced specificity with respect to type 1 5α-reductase
Cn1c(C(=O)O)cc2c3ccccc3ccc21 [Example 8, 3-methyl-3H-benz[e]indole-2-carboxylic Acid]	pronounced specificity with respect to type 1 5α-reductase
